Source: patent US8618175B2, “Ultrasound medical gel composition etherified hydroxyethylcellulose” (Brussels Ventures Corp., priority 2010, dated 2013)

Assay: Spreading ability of solvents, drop on Standard No. 1 filter paper
Type: physicochemical
Settings: for Drop Diameter After Set period of time 0(h) / Drop Diameter After Set period of time 0.5(h) / Drop Diameter After Set period of time 1(h) / Drop Diameter After Set period of time 8(h): average of 3 trials
Method: The spreading ability of various solvents was measured. Solvents including an antimicrobial agent, as well as solvents without an antimicrobial agent, were tested. Benzalkonium chloride was used as an antimicrobial agent. Spreading ability was measured by dropping one drop of liquid onto Standard No. 1 filter paper, and measuring the diameter of each drop at various time periods. The results are shown below in table 3, and reflect the average results obtained after 3 trials for each sample.

Row | SMILES | % Increase in drop diameter after 8 h (antimicrobial agent 0 wt %) [%] | Drop Diameter After Set period of time 0(h) (antimicrobial agent 0 wt %) | Drop Diameter After Set period of time 0.5(h) (antimicrobial agent 0 wt %) | Drop Diameter After Set period of time 1(h) (antimicrobial agent 0 wt %) | Drop Diameter After Set period of time 8(h) (antimicrobial agent 0 wt %) | % Increase in drop diameter after 8 h (benzalkonium chloride 3.2 wt %) [%] | Drop Diameter After Set period of time 0(h) (benzalkonium chloride 3.2 wt %) | Drop Diameter After Set period of time 0.5(h) (benzalkonium chloride 3.2 wt %) | Drop Diameter After Set period of time 1(h) (benzalkonium chloride 3.2 wt %) | Drop Diameter After Set period of time 8(h) (benzalkonium chloride 3.2 wt %)
1 | CC(O)CO (stereo not drawn) [Propylene Glycol] | 120 | 10.0 | 28.0 | 29.0 | 22.0 | 100 | 12.3 | 28.0 | 29.0 | 24.6
2 | OCCCO [Propanediol (Zemea ™), Propanediol] | 263 | 10.6 | 32 | 33.5 | 38.5 | 249 | 10.6 | 30.3 | 32.3 | 37.0
3 | OCC(O)CO [Glycerin 99%, Glycerin] | 357 | 7.0 | 22.3 | 23.6 | 32.0 | 632 | 4.0 | 22.6 | 24.0 | 29.3
